Data as given in patent US10952966B2, “Pharmaceutical composition comprising solid dispersion of BCS class II drugs with Gelucires” (GATTEFOSSE INDIA PVT. LTD., priority 2014, dated 2021).

Legend:
[1] = n-octanol: buffer pH 7.4; cited from earlier work
[2] = pH 3 to 9; cited from earlier work
[3] = Stress degradation of plain TEL drug, stability indicating HPLC method; format: physicochemical

reduction in area (HPLC) ([3]; 1 N NaOH at 80° C. for 8 hours): 64.4%
TEL degradation ([3]; pH modifiers employed in low concentration): no TEL degradation was observed
SMILES: CCCc1nc2c(C)cc(-c3nc4ccccc4n3C)cc2n1Cc1ccc(-c2ccccc2C(=O)O)cc1 [TEL, Telmisartan]
partition coefficient, log P [1]: 3.2
solubility [2]: poorly soluble
